Legend:
[1] = system: ethanol-induced gastric lesions; assay: Ethanol challenge with or without indomethacin pretreatment, part D; format: in vivo, rat; conditions: timoprazole 5 mg/kg orally, indomethacin 1 hr prior
Description: D. Because mild gastric irritants, e.g., 20% ethanol, are known to stimulate endogenous prostaglandin production, with consequent cytoprotection effects being observed, a further experiment is undertaken to determine whether timoprazole acts as a mild irritant (i.e., by stimulating endogenous cytoprotective prostaglandin production), or exerts a directly cytoprotective effect. In this experiment, rats are treated with timoprazole (5 mg/kg orally), but in each group of rats half the animals are pretreated with a NOSAC, indomethacin, 1 hr prior to treatment with timoprazole. One hr after ethanol challenge, the rats are sacrificed. […] Accordingly, the cytoprotective effects of timoprazole are not mediated by endogenous prostaglandin production.

[2] = system: thermally induced gastric ulceration; assay: Thermally induced gastric ulceration (boiling water); format: in vivo, rat; conditions: for ulcer incidence score (ulcers/stomach): rats, control score 8.0
[3] = system: ethanol-induced gastric ulceration; assay: Ethanol-induced gastric ulceration, less irritant vehicle, lowest dose protecting 50% of animals, part C; format: in vivo, rat; conditions: rats
Source text: C. […] The rats are sacrificed one hr after timoprazole administration and the extent of gastric ulceration determined.

gastric acid secretion [4] = assay: Gastric acid secretion inhibition in the rat; format: in vivo
gastric acid secretion [5] = assay: Inhibition of pentagastrin-stimulated gastric acid secretion in conscious gastric fistula dogs; format: in vivo; conditions: Canis lupus familiaris, dog, intraduodenal, read-out: Effect % inhibition (peak inhibitory effect on gastric acid secretion)
Description: To determine the gastric acid secretion inhibitory properties, experiments have been performed on conscious dogs provided with gastric fistulas of conventional type and duodenal fistules, the latter ones used for direct introduodenal administration of the test compounds. After 18 hours starvation and deprivation of water the dogs were given subcutaneous infusion of pentagastrin (1-4 nmol/kg, h) lasting for 6-7 hours. Gastric juice was collected in consecutive 30 minutes samples. An aliquot of each sample was titrated with 0.1 N NaOH to […] for titrable acid concentration using an automatic titrator and pH-meter (Radiometer, Copenhagen, Denmark). Acid output was calculated as mmol H^+ /60 minutes. The percent inhibition compared to control experiments was calculated for each compound and the peak inhibitory effect is given in Table 2 below. The test compounds, suspended in 0.5% Methocel® (methyl cellulose), were given intraduodenally in doses from 4-20 μmol/kg when the secretory response to pentagastrin has reached a steady level. In the test prior known compounds were compared with the compounds of the present invention as will be evident from the Table 2 below. The following gastric acid inhibiting effect data were obtained for a number of compounds tested according to the method described.

[6] = Gastric volume / gastric emptying experiment, part B; format: in vivo, rat; conditions: rats, oral 0.01, 0.1, or 1.0 mg/kg; 5, 15, and 30 min after ingestion
Description: B. A further experiment is undertaken to rule out gastric emptying as a factor in the cytoprotection observed in part A above. In this experiment timoprazole was given orally at 0.01, 0.1, or 1.0 mg/kg to groups of rats and a further group of rats is treated with vehicle (same as in part A) only. As above, the rats are faster for 24 hr prior to treatment. Groups of rats are then sacrificed 5, 15, and 30 min after timoprazole ingestion. […] Accordingly, flluid accumulation in the stomach is not a factor in the cytoprotection observed in part A.

[7] = system: ethanol-induced gastric lesions; assay: Ethanol-induced gastric lesions (80% aqueous ethanol challenge), part A; format: in vivo, rat; conditions: rats; for gastric ulceration: oral 0.3, 1, 3, or 10 mg/kg, 30 min before 1 ml 80% ethanol, examined 1 hr later
Description: A. Four groups of rats, standard laboratory animals for determining cytoprotective effects of pharmacological agents, are fasted for 24 hr and then treated orally with (a) […], (b) cimetidine, (c) a cytoprotective prostaglandin, or (d) vehicle (10% Emulphor, 10% EtOH, 80% water). Thirty min later, the rats are challenged with an oral 1 ml dose of 80% aqueous ethanol, a standard agent for inducing gastric cytodestruction. One hr later, the rats are sacrificed (carbon dioxide asphyxiation) and the gastric tissues examined.

[8] = system: Indomethacin-Induced Small Bowel Ulceration; conditions: rat; Kauffman et al. (1979), title; cited from earlier work
[9] = system: Cytoprotection Against Acidified Aspirin; conditions: Robert, Gastroenterology 76:1227 (1979); cited from earlier work
gastric secretion = conditions: in vivo; cited from earlier work

For [O-][S+](Cc1ccccn1)c1nc2ccccc2[nH]1 (stereo not shown) [timoprazole, 2-[2-pyridylmethylsulfinyl]benzimidazole], the “difference between rats receiving indomethacin and those not receiving it” value [1] was “no significant difference”, the “ulcer incidence score (ulcers/stomach)” value ([2]; 0.3 mg/kg) was 7.6 and the “ulcer incidence score (ulcers/stomach)” value ([2]; 1.0 mg/kg) was 5.0. For the same compound, the “ulcer incidence score (ulcers/stomach)” value ([2]; 3.0 mg/kg) was 3.9, the “ulcer incidence score (ulcers/stomach)” value ([2]; 10.0 mg/kg) was 4.0 and the “incidence and severity of ulcers as compared to vehicle” value ([2]; rats, 0.3, 1.0, 3.0, and 10.0 mg/kg) was “uniform reduction in the incidence and severity of ulcers”. For the same compound, the ED50 ([3]; Rattus norvegicus, read-out: ED50 (lowest dose at which 50% of the animals treated exhibit no gastric ulceration), oral, vehicle 5% EtOH, 1% Emulphor in water) was under 1 mg/kg, the “reduction in ulceration, oral administration” value ([3]; oral 1, 3, or 10 mg/kg, 30 min before ethanol challenge) was “significant reduction in ulceration at all dosages tested” and the “reduction of number of ulcers, subcutaneous administration” value ([3]; subcutaneous 1, 3, or 10 mg/kg, 30 min before ethanol challenge) was “did not significantly reduce the number of ulcers”. For the same compound, the ED50 (gastric acid secretion [4]; in the rat) was about 10 mg/kg, the “ED50 for gastric acid secretion inhibition relative to lowest cytoprotective dose observed” value (gastric acid secretion [4]; rat, ratio to lowest cytoprotective dose of part A) was “at least ten” and the inhibition in vivo at 4 µmol/kg (gastric acid secretion [5]) was 50%. For the same compound, the “changes in gastric volume versus vehicle” value [6] was “No significant changes in gastric volume”, the “gastric ulceration (dose 0.3 mg/kg)” value ([7]; oral 0.3 mg/kg, 30 min before 80% ethanol) was “traces of mild ulceration” and the gastric ulceration [7] was “no gastric ulceration”.
In the case of CN/C(=N/CCSCc1nc[nH]c1C)NC#N [cimetidine, N-cyano-N'-methyl-N"[2-[[(5-methyl-1H-imidazol-4-yl)methyl]thio]ethyl]gunanidine], the “inhibition of indomethacin-induced small bowel ulceration” value [8] is given as “Does Not Inhibit”, the cytoprotective effects [9] is given as “devoid of appreciable cytoprotective effects” and the gastric ulceration [7] is given as “all demonstrate gastric ulcers”. For the same compound, the number of ulcers ([7]; oral 0.3, 1.0, 3.0 or 10.0 mg/kg, 30 min before 80% ethanol) was “slight decrease in the number of ulcers” and the “inhibition of gastric secretion” value (gastric secretion) was “highly potent inhibitor of gastric secretion”.
Cc1cc(C)c2[nH]c([S+]([O-])Cc3ccccn3)nc2c1 (stereo not shown) [x (4-CH3,6-CH3, H, H, H, H), 2-[2-pyridylmethylsulfinyl]-(4,6-dimethyl)benzimidazole] showed an inhibition in vivo at 4 µmol/kg (gastric acid secretion [5]) of 30%.
Compound COC(=O)c1cc2nc([S+]([O-])Cc3cc(OC)c(C)cn3)[nH]c2cc1C (stereo not shown) [compound 18, 2-[2-(4-methoxy-5-methyl)-pyridylmethylsulfinyl]-(5-carbomethoxy-6-methyl)-benzimidazole] has an inhibition in vivo at 0.5 µmol/kg (gastric acid secretion [5]; dose 0.5 μol/kg) of 90%.

— US4359465A, “Methods for treating gastrointestinal inflammation” (The Upjohn Company, priority 1980, dated 1982)
